# Results published in US5318994A, “N-[2-(7-lower-alkoxynaphth-1-yl)ethyl]benzamides” (Adir et Compagnie, priority 1990, dated 1994).
# Target: melatonin receptors
# Assay: Test of binding to melatonin receptors
# Procedure: Binding of compounds of the invention to melatonin receptors was carried out according to conventional techniques.
compound,measurement,value
COc1ccc2[nH]cc(CCNC(C)=O)c2c1 [melatonin],Kd,0.063 nM
